{"source": "patent US20080171783A1", "about": "“COMPOSITIONS AND METHODS FOR TREATING HYPERPROLIFERATIVE DISEASE” (Migenix Inc., priority 2006, published 2008)", "experiment_in_all_cases": "NCI In Vitro Cell Line Screening (SRB)", "key": {"CCRF-CEM": {"tested_on": "CCRF-CEM", "format": "cell-based, human", "conditions": "Leukemia, 48 h"}, "MOLT-4": {"tested_on": "MOLT-4", "format": "cell-based, human", "conditions": "MOLT-4, Leukemia, 48 h"}, "SR": {"tested_on": "SR", "format": "cell-based", "conditions": "Homo sapiens, Leukemia, 48 h"}, "A549/ATCC": {"tested_on": "A549/ATCC", "format": "cell-based", "conditions": "Non-Small Cell Lung Cancer, 48 h"}, "EKVX": {"tested_on": "EKVX", "format": "cell-based, human", "conditions": "Non-Small Cell Lung Cancer, 48 h"}, "HOP-62": {"tested_on": "HOP-62", "format": "cell-based, human", "conditions": "HOP-62, Non-Small Cell Lung Cancer, 48 h"}, "HOP-92": {"tested_on": "HOP-92", "format": "cell-based, human", "conditions": "HOP-92, Non-Small Cell Lung Cancer, 48 h"}, "NCI-H226": {"tested_on": "NCI-H226", "format": "cell-based, human", "conditions": "NCI-H226, Non-Small Cell Lung Cancer, 48 h"}, "NCI-H23": {"tested_on": "NCI-H23", "format": "cell-based", "conditions": "NCI-H23, Non-Small Cell Lung Cancer, 48 h"}, "HCT-116": {"tested_on": "HCT-116", "format": "cell-based, human", "conditions": "HCT-116, Colon Cancer, 48 h"}, "HCT-15": {"tested_on": "HCT-15", "format": "cell-based, human", "conditions": "HCT-15, Colon Cancer, 48 h"}, "SW-620": {"tested_on": "SW-620", "format": "cell-based", "conditions": "SW-620, Colon Cancer, 48 h"}, "SF-268": {"tested_on": "SF-268", "format": "cell-based, human", "conditions": "SF-268, CNS Cancer, 48 h"}, "SNB-19": {"tested_on": "SNB-19", "format": "cell-based, human", "conditions": "SNB-19, CNS Cancer, 48 h"}, "SNB-75": {"tested_on": "SNB-75", "format": "cell-based, human", "conditions": "SNB-75, CNS Cancer, 48 h"}, "U251": {"tested_on": "U251", "format": "cell-based, human", "conditions": "U251, CNS Cancer, 48 h"}, "SK-MEL-5": {"tested_on": "SK-MEL-5", "format": "cell-based, human", "conditions": "SK-MEL-5, Melanoma, 48 h"}, "IGROV1": {"tested_on": "IGROV1", "format": "cell-based", "conditions": "IGROV1, Ovarian Cancer, 48 h"}, "OVCAR-5": {"tested_on": "OVCAR-5", "format": "cell-based, human", "conditions": "OVCAR-5, Ovarian Cancer, 48 h"}, "DU-145": {"tested_on": "DU-145", "format": "cell-based, human", "conditions": "DU-145, Prostate Cancer, 48 h"}, "MCF7": {"tested_on": "MCF7", "format": "cell-based, human", "conditions": "MCF7, Breast Cancer, 48 h"}, "NCI/ADR-RES": {"tested_on": "NCI/ADR-RES", "format": "cell-based, human", "conditions": "Breast Cancer, 48 h"}, "MDA-MB-435": {"tested_on": "MDA-MB-435", "format": "cell-based, human", "conditions": "MDA-MB-435, Breast Cancer, 48 h"}, "T-47D": {"tested_on": "T-47D", "format": "cell-based, human", "conditions": "Breast Cancer, 48 h"}, "OVCAR-3": {"tested_on": "OVCAR-3"}, "MDA-MB-468": {"tested_on": "MDA-MB-468"}, "[1]": {"conditions": "Homo sapiens, read-out: LC50 (the source's name)"}}, "data": [{"smiles": "CC(C)(C)c1ccc(NC(=O)[C@H](CCCCN)NC(=O)OCC2c3ccccc3-c3ccccc32)cc1", "note": "[Compound 105, (S)-[5-AMINO-1-(4-TERT-BUTYL-PHENYLCARBAMOYL)-PENTYL]-CARBAMIC ACID 9H-FLUOREN-9-YLMETHYL ESTER]", "values": [{"measurement": "GI50", "setting": "CCRF-CEM; Homo sapiens", "result": 1690, "unit": "nM"}, {"measurement": "CC50", "setting": "CCRF-CEM; [1]", "result": 6.47, "unit": "µM"}, {"measurement": "TGI", "setting": "CCRF-CEM", "result": 3.31, "unit": "µM"}, {"measurement": "GI50", "setting": "MOLT-4; Homo sapiens", "result": 1660, "unit": "nM"}, {"measurement": "TGI", "setting": "MOLT-4", "result": 3.42, "unit": "µM"}, {"measurement": "GI50", "setting": "SR", "result": 403, "unit": "nM"}, {"measurement": "CC50", "setting": "SR; read-out: LC50 (the source's name)", "result": "> 100", "unit": "µM"}, {"measurement": "GI50", "setting": "A549/ATCC; Homo sapiens", "result": 1770, "unit": "nM"}, {"measurement": "CC50", "setting": "A549/ATCC; [1]", "result": "> 100", "unit": "µM"}, {"measurement": "TGI", "setting": "A549/ATCC", "result": 23.5, "unit": "µM"}, {"measurement": "GI50", "setting": "EKVX; Homo sapiens", "result": 21, "unit": "µM"}, {"measurement": "LC50", "setting": "EKVX; Homo sapiens", "result": 90, "unit": "µM"}, {"measurement": "TGI", "setting": "EKVX", "result": 43.5, "unit": "µM"}, {"measurement": "TGI", "setting": "HOP-62", "result": 3.87, "unit": "µM"}, {"measurement": "GI50", "setting": "HOP-62; Homo sapiens", "result": 2180, "unit": "nM"}, {"measurement": "CC50", "setting": "HOP-62; [1]", "result": 6.85, "unit": "µM"}, {"measurement": "TGI", "setting": "HOP-92", "result": 3.08, "unit": "µM"}, {"measurement": "GI50", "setting": "HOP-92; Homo sapiens", "result": 1340, "unit": "nM"}, {"measurement": "CC50", "setting": "HOP-92; [1]", "result": 7.1, "unit": "µM"}, {"measurement": "GI50", "setting": "NCI-H226; Homo sapiens", "result": 22.2, "unit": "µM"}, {"measurement": "LC50 (concentration killing 50% of cells)", "setting": "NCI-H226; Homo sapiens", "result": 89.2, "unit": "µM"}, {"measurement": "TGI", "setting": "NCI-H226", "result": 44.4, "unit": "µM"}, {"measurement": "LC50 (concentration giving 50% net cell kill)", "setting": "NCI-H23; Homo sapiens", "result": 5.47, "unit": "µM"}, {"measurement": "TGI", "setting": "NCI-H23", "result": 1.95, "unit": "µM"}, {"measurement": "TGI", "setting": "HCT-116", "result": 3.35, "unit": "µM"}, {"measurement": "GI50", "setting": "HCT-116; Homo sapiens", "result": 1530, "unit": "nM"}, {"measurement": "LC50 (concentration killing 50% of cells)", "setting": "HCT-116; Homo sapiens", "result": 7.3, "unit": "µM"}, {"measurement": "TGI", "setting": "HCT-15", "result": 24.4, "unit": "µM"}, {"measurement": "GI50", "setting": "HCT-15; Homo sapiens", "result": 11.1, "unit": "µM"}, {"measurement": "CC50", "setting": "HCT-15; [1]", "result": 53.9, "unit": "µM"}, {"measurement": "GI50", "setting": "SW-620; Homo sapiens", "result": 2490, "unit": "nM"}, {"measurement": "CC50", "setting": "SW-620; [1]", "result": 21.7, "unit": "µM"}, {"measurement": "TGI", "setting": "SW-620", "result": 6.24, "unit": "µM"}, {"measurement": "GI50", "setting": "SF-268; Homo sapiens", "result": 17, "unit": "µM"}, {"measurement": "LC50", "setting": "SF-268; Homo sapiens", "result": 58.3, "unit": "µM"}, {"measurement": "TGI", "setting": "SF-268", "result": 31.5, "unit": "µM"}, {"measurement": "GI50", "setting": "SNB-19; Homo sapiens", "result": 1600, "unit": "nM"}, {"measurement": "CC50", "setting": "SNB-19; [1]", "result": 5.68, "unit": "µM"}, {"measurement": "TGI", "setting": "SNB-19", "result": 3.01, "unit": "µM"}, {"measurement": "GI50", "setting": "SNB-75; Homo sapiens", "result": 1290, "unit": "nM"}, {"measurement": "CC50", "setting": "SNB-75; [1]", "result": 5.97, "unit": "µM"}, {"measurement": "TGI", "setting": "SNB-75", "result": 2.78, "unit": "µM"}, {"measurement": "GI50", "setting": "U251; Homo sapiens, U-251", "result": 4.74, "unit": "µM"}, {"measurement": "CC50", "setting": "U251; Homo sapiens, U-251, read-out: LC50 (the source's name)", "result": 48.3, "unit": "µM"}, {"measurement": "TGI", "setting": "U251", "result": 17.3, "unit": "µM"}, {"measurement": "GI50", "setting": "SK-MEL-5; Homo sapiens", "result": 1540, "unit": "nM"}, {"measurement": "TGI", "setting": "SK-MEL-5", "result": 2.94, "unit": "µM"}, {"measurement": "CC50", "setting": "IGROV1; Homo sapiens, IGROV-1, read-out: LC50 (the source's name)", "result": 6.97, "unit": "µM"}, {"measurement": "TGI", "setting": "IGROV1", "result": 3.11, "unit": "µM"}, {"measurement": "GI50", "setting": "OVCAR-5; Homo sapiens", "result": 1850, "unit": "nM"}, {"measurement": "CC50", "setting": "OVCAR-5; [1]", "result": 6.5, "unit": "µM"}, {"measurement": "TGI", "setting": "OVCAR-5", "result": 3.46, "unit": "µM"}, {"measurement": "TGI", "setting": "DU-145", "result": 31.2, "unit": "µM"}, {"measurement": "GI50", "setting": "DU-145; Homo sapiens", "result": 15.8, "unit": "µM"}, {"measurement": "CC50", "setting": "DU-145; [1]", "result": 61.6, "unit": "µM"}, {"measurement": "GI50", "setting": "MCF7; Homo sapiens", "result": 546, "unit": "nM"}, {"measurement": "CC50", "setting": "MCF7; [1]", "result": 4.75, "unit": "µM"}, {"measurement": "TGI", "setting": "MCF7", "result": 1.91, "unit": "µM"}, {"measurement": "TGI", "setting": "NCI/ADR-RES", "result": 1.1, "unit": "µM"}, {"measurement": "GI50", "setting": "NCI/ADR-RES; Homo sapiens", "result": "< 10", "unit": "nM"}, {"measurement": "CC50", "setting": "NCI/ADR-RES; [1]", "result": 30.5, "unit": "µM"}, {"measurement": "GI50", "setting": "MDA-MB-435; Homo sapiens", "result": 4.27, "unit": "µM"}, {"measurement": "CC50", "setting": "MDA-MB-435; [1]", "result": 87.1, "unit": "µM"}, {"measurement": "TGI", "setting": "MDA-MB-435", "result": 21.7, "unit": "µM"}, {"measurement": "TGI", "setting": "T-47D", "result": 3.08, "unit": "µM"}, {"measurement": "GI50", "setting": "T-47D; Homo sapiens, T47D", "result": 1450, "unit": "nM"}, {"measurement": "GI50", "setting": "OVCAR-3; Homo sapiens, OVCAR-3, 48 h", "result": 16.1, "unit": "µM"}, {"measurement": "CC50", "setting": "OVCAR-3; Homo sapiens, OVCAR-3, 48 h, read-out: LC50", "result": 56.3, "unit": "µM"}, {"measurement": "TGI", "setting": "OVCAR-3; OVCAR-3, Ovarian Cancer, 48 h", "result": 30.1, "unit": "µM"}, {"measurement": "GI50", "setting": "MDA-MB-468; Homo sapiens, MDA-MB-468, 48 h", "result": 1460, "unit": "nM"}, {"measurement": "TGI", "setting": "MDA-MB-468; MDA-MB-468, Breast Cancer, 48 h", "result": 3.27, "unit": "µM"}]}]}
